How the values were obtained:
[1] = system: CD4+ human T cells; assay: Human Autoimmune and Inflammatory Response Gene Array, anti-CD3-stimulated T cells with or without antibiotic; format: cell-based; conditions: 120 min anti-CD3; for % decrease by Cef: cefuroxime 50 μg/ml, ±SD, relative to control
Description: T cells were purified from the peripheral bloods of healthy human donors (Blood Bank, Sheba Medical center). The whole blood was incubated (20 min, 22° C.) with RosetteSep™ human T cell enrichment mixture (StemCell Technologies, Vancouver, Canada). The remaining unsedimented cells were then loaded onto lymphocyte separation medium (ICN Biomedicals, Irvine, Calif.), isolated by density centrifugation, and washed with PBS. […] In a second round of purification, CD3^+ T cells were labeled for selection with a magnetically coupled mAb against CD4 (Miltenyi Biotec, Auburn, Calif.).
Human CD4 T cells were isolated as described, and incubated in 24 well plates (Nunc), 4×10^6 cells/ml with plate bound anti-human CD3 (OKT3) at 2 μg/ml. The stimulation was performed in RPMI medium supplemented with 0.1% BSA. […] RNA was extracted from samples and used to prepare probes for gene array in accord with the manufacturer's instructions (SuperArray Bioscience, Frederick, Md.). Adequate labeling of the probes was tested before hybridization. Three healthy donors were tested in stimulation with cefuroxime. The membranes were analyzed online with the Image Data Acquisition and Expression Analysis (SuperArray Bioscience).
The Human Autoimmune and Inflammatory Response Gene Array (SuperArray Bioscience corporation, Frederick, Md., USA) was used for analysis of gene expression by the T cells. This array contains 367 genes including cytokines, chemokines and their receptors, transcription factors and signaling proteins. […] Analysis of the results was performed using the GEArray analysis program. […] To verify the results detected by the gene array study, a panel of six genes was designed and tested by real-time PCR: CCR4, ACVR2, JAK1, STAT4, TLR2 and NFKBIE. The cDNA that was used was prepared from the same RNA used for the gene array experiment.

[2] = system: encephalitogenic BP10 line; assay: Adoptive EAE: BP10 T-cell line stimulated in vitro with test substance, then injected into naive rats; format: in vivo, rat
Description: Antigen-specific T-cell lines were established from lymph node cells that had been stimulated with myelin basic protein (MBP; 10 μg/ml) for 3 days in stimulation medium as described below. Following stimulation, the T-cell blasts were isolated on LYMPHOPREP™ (Nycomed Pharma, Oslo, Norway) and seeded in propagation medium. Propagation medium was identical to stimulation medium without autologous serum, but supplemented with fetal calf serum 10% and T-cell growth factors from the supernatant of Con A stimulated spleen cells 10% (Mor et al. (1990) J Clin Invest, 85, 1594-1598). Animals were injected intra-peritoneally with 107 MBP-stimulated T cells, following 6-8 cycles of in vitro stimulations. It is known that MBP-reactive lines undergo a reduction in pathogenicity after 6 or more in vitro stimulations. In some experiments the BP10 line was stimulated with phorbol myristate acetate (PMA; 50 ng/ml) and ionomycin (500 ng/ml) for 3 days in stimulation medium, without antigen-presenting cells.
Active EAE was induced by subcutaneous injection of 25 μg guinea-pig MBP (GpMBP) in complete Freund's adjuvant (CFA). […] Adoptive EAE was transferred by intra-peritoneal injection of guinea-pig MBP-activated cells of the BP10 line as described in Mor et al. (1993) J Clin Invest, 92, 2199-2206. […] Clinical scoring was: +1, paralysis of tail; +1.5, paresis of posterior paws and ataxia; +2, paraplegia; +3, paralysis extending to thoracic spine; +4, a moribund state.
Treatment with cefuroxime in vivo could affect many different host agents involved in EAE or AA as well as influencing the rats' bacterial flora. To test whether the antibiotic might directly modify the behavior of effector T cells, an encephalitogenic T-cell line was stimulated in the presence or absence of cefuroxime in vitro. The weakly encephalitogenic BP10 line was used, and was stimulated for 3 days with MBP in the presence or absence of cefuroxime (50 μg/ml). The activated T cells were then washed to remove the antibiotic, the T cells were injected intra-peritoneally into naïve recipient rats (10^7 per rat), and EAE was scored. The BP10 line at later stimulations was used, when its pathogenic potential is reduced, allowing to detect both suppression and enhancement of disease. […] To rule out antigen presenting cells (APC) as the target of the beta-lactam antibiotic, the encephalitogenic BP10 line was stimulated without APC using PMA (50 ng/ml) and Ionomycin (500 ng/ml) in the presence or absence of cefuroxime.
Additional beta-lactam antibiotics were tested for their effect on the adoptive transfer of EAE.
A control group was injected with the untreated line.

## CO/N=C(\C(=O)N[C@@H]1C(=O)N2C(C(=O)O)=C(COC(N)=O)CS[C@H]12)c1ccco1 [cefuroxime]
[1]; array of 367 genes, 50 μg/ml
  number of genes down-regulated: Fifty-seven
[1]; gene ACTB
  % decrease by Cef: 49 ± 11%
[1]; gene ACVR1
  % decrease by Cef: 42 ± 0.7%
[1]; gene ACVR2
  % decrease by Cef: 60 ± 14.8%
[1]; gene CCL5
  % decrease by Cef: 21 ± 5.6%
[1]; gene CCL11
  % decrease by Cef: 18 ± 6.6%
[1]; gene CCR4
  % decrease by Cef: 39 ± 2%
[1]; gene CCR6
  % decrease by Cef: 53 ± 5.6%
[1]; gene CCR7
  % decrease by Cef: 38 ± 8.1%
[1]; gene CD28
  % decrease by Cef: 51 ± 2.1%
[1]; gene CD40LG
  % decrease by Cef: 33 ± 7.1%
[1]; gene CREB1
  % decrease by Cef: 19 ± 4.9%
[1]; gene CREBBP
  % decrease by Cef: 40 ± 9.9%
[1]; gene CXCL10
  % decrease by Cef: 39 ± 3%
[1]; gene EGR3
  % decrease by Cef: 38 ± 2.8%
[1]; gene GFI1
  % decrease by Cef: 45 ± 14%
[1]; gene HRAS
  % decrease by Cef: 30 ± 9.8%
[1]; gene IL1B
  % decrease by Cef: 54 ± 7.0%
[1]; gene IL2RB
  % decrease by Cef: 50 ± 9.9%
[1]; gene IL2RG
  % decrease by Cef: 57 ± 9.8%
[1]; gene IL9R
  % decrease by Cef: 27.5 ± 3%
[1]; gene IL16
  % decrease by Cef: 50 ± 7.8%
[1]; gene IRAK1
  % decrease by Cef: 44 ± 2.1%
[1]; gene JAK1
  % decrease by Cef: 53 ± 13.4%
[1]; gene JUN
  % decrease by Cef: 49 ± 2.2%
[1]; gene LTA
  % decrease by Cef: 17 ± 10%
[1]; gene MAP2K4
  % decrease by Cef: 52 ± 14.1%
[1]; gene MAP3K1
  % decrease by Cef: 53 ± 12%
[1]; gene MAP3K2
  % decrease by Cef: 36 ± 12%
[1]; gene MAP3K7
  % decrease by Cef: 46 ± 9.9%
[1]; gene MAPK9
  % decrease by Cef: 42 ± 10.9%
[1]; gene NFKB1
  % decrease by Cef: 43 ± 3.5%
[1]; gene NFKB2
  % decrease by Cef: 53 ± 10.6%
[1]; gene NFKBIE
  % decrease by Cef: 63 ± 11%
[1]; gene NFKBIL1
  % decrease by Cef: 54 ± 12.5%
[1]; gene PAK1
  % decrease by Cef: 40 ± 2.4%
[1]; gene PIN1
  % decrease by Cef: 45 ± 12.1%
[1]; gene RANBP5
  % decrease by Cef: 33 ± 3.5%
[1]; gene REL
  % decrease by Cef: 45 ± 1.9%
[1]; gene RFX5
  % decrease by Cef: 36 ± 4.2%
[1]; gene RFXAP
  % decrease by Cef: 27 ± 12%
[1]; gene SDF2
  % decrease by Cef: 28 ± 12%
[1]; gene SELL
  % decrease by Cef: 46 ± 7.0%
[1]; gene SMAD4
  % decrease by Cef: 47 ± 7.0%
[1]; gene SMAD7
  % decrease by Cef: 47 ± 4.2%
[1]; gene SP3
  % decrease by Cef: 39 ± 9.9%
[1]; gene SRF
  % decrease by Cef: 38 ± 1.9%
[1]; gene STAT1
  % decrease by Cef: 32 ± 11%
[1]; gene STAT4
  % decrease by Cef: 47 ± 9.3%
[1]; gene STAT6
  % decrease by Cef: 47 ± 7.9%
[1]; gene TGFBR3
  % decrease by Cef: 44 ± 3.5%
[1]; gene TGIF
  % decrease by Cef: 43 ± 3.5%
[1]; gene TLR2
  % decrease by Cef: 52 ± 14%
[1]; gene TNFRSF11
  % decrease by Cef: 43 ± 2%
[1]; gene TNFα
  % decrease by Cef: 29 ± 8.5%
[1]; gene TRAF5
  % decrease by Cef: 43 ± 2.2%
[1]; gene TRAF6
  % decrease by Cef: 43 ± 3.5%
[1]; gene YY1
  % decrease by Cef: 23 ± 9.1%
[2]; BP10 line stimulated 3 days with MBP in presence of 50 μg/ml antibiotic, 10^7 cells per rat
  severity of adoptive EAE in recipient rats: markedly enhanced the manifestations of EAE
[2]; BP10 line stimulated 3 days with MBP in presence of 50 μg/ml antibiotic, 10^7 cells per rat, listed as Cefuroxime
  severity of adoptive EAE in recipient rats: enhances the pathogenicity of the BP10 line
[2]; BP10 line stimulated without APC using PMA (50 ng/ml) and Ionomycin (500 ng/ml)
  severity of adoptive EAE in recipient rats: significantly more severe
[2]; dose-response, BP10 line stimulated with 5 μg/ml
  severity of adoptive EAE in recipient rats: ineffective
[2]; dose-response, BP10 line stimulated with 25 μg/ml
  severity of adoptive EAE in recipient rats: enhancing effect similar to that of 50 μg/ml

From patent US9474744B2, “Beta-lactam compounds for treating diabetes” (STEM CELL MEDICINE LTD., priority 2011, dated 2016)
